The results in this text go back to US9751869B2, “LXR modulators” (BRISTOL-MYERS SQUIBB COMPANY, priority 2013, dated 2017).

The assay addresses T1, LXRβ (Homo sapiens, UniProt P55055).
T1 construct: Co-transfection expression plasmids, comprising full-length LXRα (pCMX-h LXRα or LXRβ (pCMX-hLXRβ)); expressed in transfected cells; host or cells: CV-1 African green monkey kidney cells, transient transfection with pCMX-hLXRβ
T1 sequence (P55055 1-460): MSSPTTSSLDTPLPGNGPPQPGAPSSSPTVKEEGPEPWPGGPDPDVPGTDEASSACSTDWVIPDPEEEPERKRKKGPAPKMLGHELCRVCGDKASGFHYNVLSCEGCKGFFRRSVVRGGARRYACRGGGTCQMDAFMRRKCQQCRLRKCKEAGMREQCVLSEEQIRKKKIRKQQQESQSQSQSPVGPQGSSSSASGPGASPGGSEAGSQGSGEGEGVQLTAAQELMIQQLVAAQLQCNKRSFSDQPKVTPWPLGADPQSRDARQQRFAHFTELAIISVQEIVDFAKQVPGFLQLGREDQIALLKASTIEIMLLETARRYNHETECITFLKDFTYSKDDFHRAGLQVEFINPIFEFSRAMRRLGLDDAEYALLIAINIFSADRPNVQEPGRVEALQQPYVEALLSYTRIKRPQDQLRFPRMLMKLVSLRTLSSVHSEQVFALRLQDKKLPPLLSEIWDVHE
T1 sequence (P19793 1-462 partner): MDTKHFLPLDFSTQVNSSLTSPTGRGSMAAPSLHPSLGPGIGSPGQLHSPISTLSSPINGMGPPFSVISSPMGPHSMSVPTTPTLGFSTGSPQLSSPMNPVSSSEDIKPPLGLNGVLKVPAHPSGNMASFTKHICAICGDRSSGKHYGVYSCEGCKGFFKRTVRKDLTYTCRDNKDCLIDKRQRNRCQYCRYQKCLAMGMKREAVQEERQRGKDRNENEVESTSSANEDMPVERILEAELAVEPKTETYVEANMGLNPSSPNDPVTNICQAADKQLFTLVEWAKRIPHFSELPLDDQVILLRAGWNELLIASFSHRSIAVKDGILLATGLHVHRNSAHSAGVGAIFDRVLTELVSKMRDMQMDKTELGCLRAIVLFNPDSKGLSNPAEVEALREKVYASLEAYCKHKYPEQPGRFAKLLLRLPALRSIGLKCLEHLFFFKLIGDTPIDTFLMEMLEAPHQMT
Put plainly: LXR/LXRE co-transfection assay (luciferase reporter) in CV-1 cells, LXRβ. In kind it is cell-based. To be noted: for EC50: CV-1 cells transfected with pCMX-hLXRβ and LXREx1-Tk-Luciferase, 20 hours incubation, read-out: LXRbeta agonism EC50; for Emax: CV-1 cells, relative to maximum response of high control N-(3-((4-fluorophenyl)-(naphthalene-2-sulfonyl)amino)propyl)-2,2-dimethylpropionamide, read-out: LXRbeta % EFFICACY
The method, boiled down: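 CV-1 cells transiently co-transfected with full-length human LXRβ, LXRE-Tk-luciferase reporter and β-galactosidase control, then exposed to compound (≤0.5% DMSO) for 20 h at 37 °C before luminescence read. EC50 from 10-point, half-log dose curves; efficacy relative to the sulfonamide high control, means of 2–3 experiments.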

As for `Cc1cc(C(F)(F)F)nn1-c1ccc(-c2cccc(S(C)(=O)=O)c2)cc1-c1ocnc1-c1ccc(OC(F)(F)F)cc1` [Example 307, 5-{3′-(methylsulfonyl)-4-[5-methyl-3-(trifluoromethyl)-1H-pyrazol-1-yl]biphenyl-3-yl}-4-{4-[(trifluoromethyl)oxy]phenyl}-1,3-oxazole], the EC50 came out at 91 nM and the Emax is 98%.

With `Cc1nc(-c2ccc(OC(F)(F)F)cc2)c(-c2cc(-c3cccc(S(C)(=O)=O)c3)ccc2-n2ccc(C(N)=O)n2)o1` [Example 308, 1-(3-(2-methyl-4-(4-(trifluoromethoxy)phenyl)oxazol-5-yl)-3′-(methylsulfonyl)biphenyl-4-yl)-1H-pyrazole-3-carboxamide], the concentration for a half-maximal effect (EC50) came to 1650 nM and the Emax was found to be 29%.

For `Cc1nc(-c2ccc(OC(F)(F)F)cc2)c(-c2cc(-c3cccc(S(C)(=O)=O)c3)ccc2-n2ccc(C(F)(F)F)n2)o1` [Example 309, 2-methyl-5-(3′-(methylsulfonyl)-4-(3-(trifluoromethyl)-1H-pyrazol-1-yl)-[1,1′-biphenyl]-3-yl)-4-(4-(trifluoromethoxy)phenyl)oxazole], the half-maximal effective concentration (EC50) amounted to 120 nM and the Emax is 68%.

For the compound `Cc1nc(-c2cc(-c3cccc(S(C)(=O)=O)c3)ccc2-n2cc(Cl)c(C(F)(F)F)n2)c(-c2ccc(OC(F)(F)F)cc2)o1` [Example 310, 4-(4-(4-chloro-3-(trifluoromethyl)-1H-pyrazol-1-yl)-3′-(methylsulfonyl)-[1,1′-biphenyl]-3-yl)-2-methyl-5-(4-(trifluoromethoxy)phenyl)oxazole], the half-maximal effective concentration (EC50) is 27 nM and the Emax came to 75%.

`CCOc1cc(C(F)(F)F)nn1-c1ccc(-c2cccc(S(C)(=O)=O)c2)cc1-c1nc(C)oc1-c1ccc(OC(F)(F)F)cc1` [Example 311, 4-(4-(5-ethoxy-3-(trifluoromethyl)-1H-pyrazol-1-yl)-3′-(methylsulfonyl)biphenyl-3-yl)-2-methyl-5-(4-(trifluoromethoxy)phenyl)oxazole]: the EC50 was 798 nM and the Emax was 37%.

Regarding `Cc1nc(-c2cc(-c3cccc(S(C)(=O)=O)c3)ccc2-n2nc(C(F)(F)F)cc2C2CC2)c(-c2ccc(OC(F)(F)F)cc2)o1` [Example 312, 4-(4-(5-cyclopropyl-3-(trifluoromethyl)-1H-pyrazol-1-yl)-3′-(methylsulfonyl)biphenyl-3-yl)-2-methyl-5-(4-(trifluoromethoxy)phenyl)oxazole], the EC50 worked out at 798 nM and the Emax is 34%.

With `Cc1nc(-c2ccc(OC(F)(F)F)cc2)c(-c2cc(-c3cc(F)c(CO)c(S(C)(=O)=O)c3)ccc2-n2ccc(C(C)(F)F)n2)o1` [Example 313, (4′-(3-(1,1-difluoroethyl)-1H-pyrazol-1-yl)-3-fluoro-3′-(2-methyl-4-(4-(trifluoromethoxy)phenyl)oxazol-5-yl)-5-(methylsulfonyl)-[1,1′-biphenyl]-4-yl)methanol], the concentration for a half-maximal effect (EC50) was determined as 20 nM and the Emax was 59%.

For `Cc1nc(-c2ccc(OC(F)(F)F)cc2)c(-c2cc(-c3cnc(CO)c(S(C)(=O)=O)c3)ccc2-n2cc(Cl)c(C(F)(F)F)n2)o1` [Example 314, (5-(4-(4-chloro-3-(trifluoromethyl)-1H-pyrazol-1-yl)-3-(2-methyl-4-(4-(trifluoromethoxy)phenyl)oxazol-5-yl)phenyl)-3-(methylsulfonyl)pyridin-2-yl)methanol], the EC50 worked out at 11 nM and the Emax was determined as 68%.

`Cc1nc(-c2ccc(OC(F)(F)F)cc2)c(-c2cc(-c3cc(F)c(CO)c(S(C)(=O)=O)c3)ccc2-n2ccc(C3CC3)n2)o1` [Example 315, (4′-(3-cyclopropyl-1H-pyrazol-1-yl)-3-fluoro-3′-(2-methyl-4-(4-(trifluoromethoxy)phenyl)oxazol-5-yl)-5-(methylsulfonyl)-[1,1′-biphenyl]-4-yl)methanol]: the EC50 was 70 nM and the Emax was 48%.

`Cc1nc(-c2ccc(OC(F)(F)F)cc2)c(-c2cc(-c3cccc(S(C)(=O)=O)c3)ccc2-n2ccc(C(C)(C)O)n2)o1` [Example 316, 2-(1-(3-(2-methyl-4-(4-(trifluoromethoxy)phenyl)oxazol-5-yl)-3′-(methylsulfonyl)biphenyl-4-yl)-1H-pyrazol-3-yl)propan-2-ol]: the EC50 was determined as 293 nM and the Emax was determined as 24%.

As to `Cc1nc(-c2ccc(OC(F)(F)F)cc2)c(-c2cc(-c3cc(F)c(CO)c(S(C)(=O)=O)c3)ccc2-n2ccc(C(C)(C)O)n2)o1` [Example 317, 2-(1-(3′-fluoro-4′-(hydroxymethyl)-3-(2-methyl-4-(4-(trifluoromethoxy)phenyl)oxazol-5-yl)-5′-(methylsulfonyl)biphenyl-4-yl)-1H-pyrazol-3-yl)propan-2-ol], the EC50 was 92 nM and the Emax amounted to 27%.

Turning to `Cc1nc(-c2ccc(OC(F)(F)F)cc2)c(-c2cc(-c3cccc(S(C)(=O)=O)c3)ccc2-n2ccc(C#N)n2)o1` [Example 318, 1-(3-(2-methyl-4-(4-(trifluoromethoxy)phenyl)oxazol-5-yl)-3′-(methylsulfonyl)biphenyl-4-yl)-1H-pyrazole-3-carbonitrile], the 50% effective concentration (EC50) stood at 246 nM and the Emax was 84%.

Regarding `Cc1nc(-c2ccc(OC(F)(F)F)cc2)c(-c2cc(-c3cc(F)c(CO)c(S(C)(=O)=O)c3)ccc2-n2ccc(C#N)n2)o1` [Example 319, 1-(3′-fluoro-4′-(hydroxymethyl)-3-(2-methyl-4-(4-(trifluoromethoxy)phenyl)oxazol-5-yl)-5′-(methylsulfonyl)biphenyl-4-yl)-1H-pyrazole-3-carbonitrile], the EC50 turned out to be 71 nM and the Emax stood at 80%.

Turning to `Cc1nc(-c2ccc(OC(F)(F)F)cc2)c(-c2cc(-c3cc(F)c(CO)c(S(C)(=O)=O)c3)ccc2-n2ccc(C(N)=O)n2)o1` [Example 320, 1-(3′-fluoro-4′-(hydroxymethyl)-3-(2-methyl-4-(4-(trifluoromethoxy)phenyl)oxazol-5-yl)-5′-(methylsulfonyl)biphenyl-4-yl)-1H-pyrazole-3-carboxamide], the EC50 amounted to 472 nM and the Emax was 58%.

For `Cc1nc(-c2ccc(OC(F)(F)F)cc2)c(-c2cc(-c3cccc(S(C)(=O)=O)c3)ccc2-n2ccc(CO)n2)o1` [Example 321, (1-(3-(2-methyl-4-(4-(trifluoromethoxy)phenyl)oxazol-5-yl)-3′-(methylsulfonyl)biphenyl-4-yl)-1H-pyrazol-3-yl)methanol], the EC50 was 1440 nM and the Emax turned out to be 40%.

With `Cc1nc(-c2ccc(OC(F)(F)F)cc2)c(-c2cc(-c3cc(F)c(CO)c(S(C)(=O)=O)c3)ccc2-n2ccc(CO)n2)o1` [Example 322, (3-fluoro-4′-(3-(hydroxymethyl)-1H-pyrazol-1-yl)-3′-(2-methyl-4-(4-(trifluoromethoxy)phenyl)oxazol-5-yl)-5-(methylsulfonyl)biphenyl-4-yl)methanol], the EC50 is 1110 nM and the Emax was found to be 58%.

On to `Cc1nc(-c2ccc(OC(F)(F)F)cc2)c(-c2cc(-c3cc(F)c(CO)c(S(C)(=O)=O)c3)ccc2-n2nc(C(F)(F)F)cc2C2CC2)o1` [Example 323, (4′-(5-cyclopropyl-3-(trifluoromethyl)-1H-pyrazol-1-yl)-3-fluoro-3′-(2-methyl-4-(4-(trifluoromethoxy)phenyl)oxazol-5-yl)-5-(methylsulfonyl)biphenyl-4-yl)methanol], for which the concentration giving a half-maximal response (EC50) is 948 nM and the Emax turned out to be 48%.

As to `Cc1nc(-c2ccc(OC(F)(F)F)cc2)c(-c2cc(-c3cccc(S(C)(=O)=O)c3)ccc2-n2nc(C(F)(F)F)cc2C2CC2)o1` [Example 324, 5-(4-(5-cyclopropyl-3-(trifluoromethyl)-1H-pyrazol-1-yl)-3′-(methylsulfonyl)biphenyl-3-yl)-2-methyl-4-(4-(trifluoromethoxy)phenyl)oxazole], the half-maximal effective concentration (EC50) amounted to 1230 nM and the Emax came out at 44%.

As to `Cc1nc(-c2ccc(OC(F)F)cc2)c(-c2cc(-c3cc(F)c(CO)c(S(C)(=O)=O)c3)ccc2-n2nc(C(F)(F)F)cc2C)o1` [Example 325, (3′-(4-(4-(difluoromethoxy)phenyl)-2-methyloxazol-5-yl)-3-fluoro-4′-(5-methyl-3-(trifluoromethyl)-1H-pyrazol-1-yl)-5-(methylsulfonyl)biphenyl-4-yl) methanol], the EC50 is 12 nM and the Emax was found to be 78%.
